Converted amounts (≈) assume the structure as drawn.
Columns and labels:
Experiment in all cases: Minimum inhibitory concentration (MIC90)
Format in all cases: cell-based
[1] = tested on: H. influenzae/β-lactamase positive
Description: (§1) The concentrations of the antibiotics of formula (I) in the compositions of the present invention will vary depending on the intended use of the compositions (e.g., treatment of existing infections or prevention of post-surgical infections), and the relative antimicrobial activity of the specific antibiotic selected. The antimicrobial activity of antibiotics is generally expressed as the minimum concentration required to inhibit the growth of a specified pathogen. This concentration is also referred to as the “minimum inhibitory concentration” or “MIC”. The term “MIC90” refers to the minimum concentration of antibiotic required to inhibit the growth of ninety percent (90%) of the strains of a species. The concentration of an antibiotic required to totally kill a specified bacteria is referred to as the “minimum bactericidal concentration” or “MBC”. The minimum inhibitory concentration of Trovafloxacin for several bacteria commonly associated with ophthalmic, otic and nasal infections are provided in the following table: […]

[2] = tested on: H. influenzae/βlactamase negative
Description: as §1

P. aeruginosa = tested on: P. aeruginosa
Description: as §1

[3] = tested on: S. aureus/methicillin resistant
Description: as §1

[4] = tested on: S. aureus/methicillin sensitive
Description: as §1

[5] = tested on: S. aureus/quinolone resistant
Description: as §1

[6] = tested on: S. epidermidis/methicillin resistant
Description: as §1

[7] = tested on: S. epidermidis/methicillin sensitive
Description: as §1

[8] = tested on: S. pneumoniae/penicillin resistant
Description: as §1

[9] = tested on: S. pneumoniae/penicillin sensitive
Description: as §1

Q: How did the MIC90 [1] turn out when `N[C@@H]1[C@H]2CN(c3nc4c(cc3F)c(=O)c(C(=O)O)cn4-c3ccc(F)cc3F)C[C@@H]12` [Trovafloxacin] was run?
A: 0.03 µg/mL (≈ 0.0721 µM)

Q: And the MIC90 [2]?
A: 0.03 µg/mL (≈ 0.0721 µM)

Q: And the MIC90 (P. aeruginosa)?
A: 2.0 µg/mL (≈ 4.8 µM)

Q: What about the MIC90 [3] of the same compound?
A: 2.0 µg/mL (≈ 4.8 µM)

Q: What about the MIC90 [4] of the same compound?
A: 0.03 µg/mL (≈ 0.0721 µM)

Q: And the MIC90 [5]?
A: 4.0 µg/mL (≈ 9.61 µM)

Q: What about the MIC90 [6] of the same compound?
A: 4.0 µg/mL (≈ 9.61 µM)

Q: What about the MIC90 [7] of the same compound?
A: 0.06 µg/mL (≈ 0.144 µM)

Q: What about the MIC90 [8] of the same compound?
A: 0.25 µg/mL (≈ 0.6 µM)

Q: What about the MIC90 [9] of the same compound?
A: 0.25 µg/mL (≈ 0.6 µM)

Source: patent US6395746B1, “Methods of treating ophthalmic, otic and nasal infections and attendant inflammation” (Alcon Manufacturing, Ltd., priority 1998, dated 2002)
